Results from article PMC5578373, “Inhibitory Kappa B Kinase α (IKKα) Inhibitors That Recapitulate Their Selectivity in Cells against Isoform-Related Biomarkers” (Journal of Medicinal Chemistry, 2017).
pIC50: −log10 of the molar value. Entries after “also recorded” stand apart in the source; their conditions may differ. Like-named read-outs stand apart in the source and are kept apart here.

Experiments:
[1] = system: IKKβ-dependent IκBα degradation in U2OS cells; experiment: TNFα-induced IκBα degradation in U2OS cells, Western blot; format: cell-based, human; settings: highest concentration 100 μM, TNF-α (10 ng/mL) 30 min
Protocol: (§1) Two IKKβ-dependent readouts were selected to assess selectivity over IKKβ. First, TNFα stimulates IκBα degradation through activation of IKKβ and if IKKβ is inhibited, then a band corresponding to the IκBα protein should be evident by Western analysis. Second, IKKβ phosphorylates p65 on Ser536, which can also be assessed by Western blot analysis. Only at the highest concentration (100 μM) of 48 was IκBα degradation and p65 (Ser536) phosphorylation inhibited (Figure 9b). Even at this high concentration, these effects were not apparent following pretreatment with 47 (Figure 10b).
(§2) Figure 9 Effect of compound 48 on (a) FCS-stimulated noncanonical and (b) TNF-α-induced canonical NF-kB activation in U2OS cells. […] Whole cell lysate were prepared, separated by SDS-PAGE, and assessed for (a) inhibition of p100 phosphorylation (Ser866/870) and (b) IkB-α and p-p65 (Ser536) status. […]
as §2, with “10” for “9”, “47” for “48”
(§3) Whole cell lysates were prepared from U2OS and status of IκBα, p65, p-p65 (Ser536), and p-p100 (Ser 866/870) assessed by Western blotting as described in Mackenzie et al. (2007).[46]

[2] = system: IKKα-driven p100 phosphorylation in U2OS cells; experiment: FCS-stimulated p100 phosphorylation (Ser866/870) in U2OS cells, Western blot; format: cell-based, human; settings: 1 h pretreatment, FCS (10%) for 4 h, blots quantified, read-out: IC50 for inhibition of p100 phosphorylation
Protocol: as §1
(§4) Figure 9 Effect of compound 48 on (a) FCS-stimulated noncanonical and (b) TNF-α-induced canonical NF-kB activation in U2OS cells. Cells were pretreated with 48 1 h prior to stimulation with FCS (10%) for 4 h or TNF-α (10 ng/mL) for 30 min. Whole cell lysate were prepared, separated by SDS-PAGE, and assessed for (a) inhibition of p100 phosphorylation (Ser866/870) and (b) IkB-α and p-p65 (Ser536) status. […] The results are representative of three independent experiments.
as §4, with “10” for “9”, “47” for “48”
(§5) U2OS cells were cultured with McCoy’s 5A modified medium and MEF were cultured with DEME medium containing 10% (v/v) FCS and medium was changed every 2 d thereafter until cells became confluent. Cells were incubated at 37 °C in humidified air with 5% CO2 and rendered quiescent by serum deprivation for 24 h prior to stimulation in serum-free medium.
as §3

[3] = system: IKKβ-dependent p65 (Ser536) phosphorylation in U2OS cells; experiment: TNFα-induced p65 (Ser536) phosphorylation in U2OS cells, Western blot; format: cell-based, human; settings: highest concentration 100 μM, TNF-α (10 ng/mL) 30 min
Protocol: as §1, §2
as §2, with “10” for “9”, “47” for “48”
as §3

[4] = system: IKKα-regulated NF-κB transcriptional activation in IKKβ−/− MEFs; experiment: IL-1β-stimulated NF-κB-luciferase transcriptional activity in IKKβ knockout MEFs; format: cell-based, mouse
Protocol: To provide further evidence for cellular activity, mouse embryonic fibroblasts lacking the IKKβ kinase subunit were utilized to investigate the potency of both compounds against agonist-stimulated IKKα-regulated NF-κB transcriptional activation. Cells were infected with an adenovirus encoding an NF-κB-luciferase promoter gene. NF-κB transcriptional activity driven by IKKα was stimulated specifically using IL-1β,[41] and the ability of the compounds to inhibit this response was assessed. […] As IKKα plays a lesser role in the canonical NF-κB cascade,[42] particularly the rapid and transient stimulated degradation of IκBα, selective IKKα inhibitors should not affect TNF-α induced IκBα degradation and p65 phosphorylation.
as §5
An adenoviral vector encoding NFκB-luciferase (Adv.NFκB-Luc) was purchased from Vector Biolabs (University of Pennsylvania, Philadelphia, US). Large-scale production of high titer recombinant adenovirus was performed by routine methods.[47] IKKβ knockout mouse embryonic fibroblasts (MEFs; kindly provided by Prof. I. Verma, UCSD, USA) were counted when approximately 60–70% confluent in T75 cm^2 flasks and infected with adenovirus up to 300 pfu/cell^–1 for 24 h in 10% DMEM. Cells were then lifted from the flasks and plated into 96-well clear bottom, black luciferase plates and allowed to settle for 24 h before serum starved overnight. Cells were then stimulated with the appropriate agonists for the indicated times and reactions terminated by addition of lysis buffer containing 0.2 mM luciferin substrate. Relative light units (RLU) were measured using a Trilux microbeta counter (luminometer).

N#Cc1c[nH]c2nc(N)nc(-c3ccc(CO)cc3)c12 [Compound 47, 2-Amino-4-(4-hydroxymethyl)phenyl-7H-pyrrolo[2,3-d]pyrimidine-5-carbonitrile] was tested, and the “inhibition of TNFα-stimulated IκBα degradation” value [1] was “not apparent; also recorded: did not affect”, the pIC50 [2] was 4.72 and the pIC50 ([2]; Homo sapiens, U2OS) was 4.86. The “inhibition of TNFα-stimulated p65 (Ser536) phosphorylation” value [3] was “not apparent; also recorded: did not affect”, the “% stimulation” value ([4]; 100 μM compound, 1 h pretreatment, IL-1β (10 ng/mL) 6 h, IL-1β + DMSO = 100, mean ± SEM) was “–40.9 ± 4.6 %” and the “inhibition of NF-κB transcriptional activity” value ([4]; maximal concentrations of 50–100 μM) was “approximately 81%”. For the same molecule, the “% stim” value ([4]; maximal concentrations of 50–100 μM, Il-1β+DMSO = 100%) was 18.79 ± 7.2%.
